The source of these data is PubChem BioAssay AID212 (DTP/NCI, 2004).

Each structure is given as a SMILES string. “And” between values parts separate entries of the source, which are not always exact repeats. Equal values may be shown once. Records with an inconclusive call do not appear.

This assay relates to BDF1 mice, colon carcinoma 38 sc, T/C %. Nature of the assay: NCI In Vivo Anticancer Drug Screen. Data for tumor model Colon Carcinoma 38 (subcutaneous) in B6D2F1 (BDF1) mice. Conditions: endpoint: median tumor weight (est.), higher = larger tumour. Here is the method: The antitumor activity of compounds was measured in mice bearing transplantable tumors. Survival or tumor size were measured and the results are expressed as the measurement made in the treated group (T) divided by the measurement made in the vehicle treated control group (C). The tumor model used in this assay is Colon Carcinoma 38 (subcutaneous) in B6D2F1 (BDF1) mice

Setting [1] is: dose: 6.25 mg/kg/injection, schedule: Q07DX003 (ip), vehicle: saline with Tween-80.
[2] abbreviates: dose: 25.0 mg/kg/injection, schedule: Q07DX003 (ip), vehicle: saline with Tween-80.
Where [3] appears, read: dose: 50.0 mg/kg/injection, schedule: Q07DX003 (ip), vehicle: saline with Tween-80.
Where [4] appears, read: dose: 100.0 mg/kg/injection, schedule: Q07DX002 (ip), vehicle: Klucel (hydroxypropylcellulose) (HPC).
The mark [5] stands for this setting: dose: 200.0 mg/kg/injection, schedule: Q07DX002 (ip), vehicle: Klucel (hydroxypropylcellulose) (HPC).
Setting [6] is: dose: 400.0 mg/kg/injection, schedule: Q07DX002 (ip), vehicle: Klucel (hydroxypropylcellulose) (HPC).
[7] abbreviates: dose: 12.5 mg/kg/injection, schedule: Q07DX002 (ip), vehicle: saline with Tween-80.
Where [8] appears, read: dose: 100.0 mg/kg/injection, schedule: Q07DX002 (ip), vehicle: saline with Tween-80.
The mark [9] stands for this setting: dose: 200.0 mg/kg/injection, schedule: Q07DX002 (ip), vehicle: saline with Tween-80.
The mark [10] stands for this setting: dose: 25.0 mg/kg/injection, schedule: Q07DX002 (ip), vehicle: Klucel (hydroxypropylcellulose) (HPC).
Setting [11] is: dose: 50.0 mg/kg/injection, schedule: Q07DX002 (ip), vehicle: Klucel (hydroxypropylcellulose) (HPC).
Setting [12] is: dose: 25.0 mg/kg/injection, schedule: Q07DX002 (ip), vehicle: saline with Tween-80.

Turning to `COc1ccc([I+]c2cccc(Cl)c2)cc1Cl`, the T/C by setting is: under setting [1], 54 % of control; (dose: 12.5 mg/kg/injection, schedule: Q07DX003 (ip), vehicle: saline with Tween-80) 78 % of control; under setting [2], 100 % of control; under setting [3], 111 % of control; (dose: 100.0 mg/kg/injection, schedule: Q07DX003 (ip), vehicle: saline with Tween-80) 105 % of control; (dose: 200.0 mg/kg/injection, schedule: Q07DX003 (ip), vehicle: saline with Tween-80) 72 % of control.
As to `COc1ccc(CC2C(=O)NC(C)C(=O)N(C)C3C(=O)N(C)C(Cc4ccc(O)c(c4)Oc4ccc(cc4)C3O)C(=O)NC(C)C(=O)NC(C)C(=O)N2C)cc1` (stereo not given), the T/C runs as follows: (dose: 0.5 mg/kg/injection, schedule: Q07DX003 (ip), vehicle: Klucel (hydroxypropylcellulose) (HPC)) 98 % of control; (dose: 1.0 mg/kg/injection, schedule: Q07DX003 (ip), vehicle: Klucel (hydroxypropylcellulose) (HPC)) 106 % of control; (dose: 4.0 mg/kg/injection, schedule: Q07DX003 (ip), vehicle: Klucel (hydroxypropylcellulose) (HPC)) 182 % of control; (dose: 8.0 mg/kg/injection, schedule: Q07DX003 (ip), vehicle: Klucel (hydroxypropylcellulose) (HPC)) 159 % of control; (dose: 16.0 mg/kg/injection, schedule: Q07DX003 (ip), vehicle: Klucel (hydroxypropylcellulose) (HPC)) 44 % of control.
`O=C(O)Cc1cc(O)cc2c(=O)cc(-c3ccccc3)oc12`: the T/C by setting is: under setting [4], 52 % of control; under setting [5], 63 % of control; under setting [6], 103 % of control.
Consider `Nc1ncnc2c1nnn2C1OC(CO)C(O)C1O` (stereo not given), for which the T/C under setting [6] was 45 % of control.
For the molecule `CC(=Nc1ccccc1)C1=C(O)C(Cc2ccccc2)NC1=O` (stereo not given), the T/C under setting [7] is 86 % of control and 105 % of control; the T/C under setting [8] was 45 % of control and 50 % of control; the T/C under setting [9] was 70 % of control and 82 % of control.
`CCN(CC)c1ccc2cc(-c3nc4ccccc4n3C)c(=O)oc2c1`: the T/C reads like this: (dose: 12.5 mg/kg/injection, schedule: Q07DX002 (ip), vehicle: Klucel (hydroxypropylcellulose) (HPC)) 112 % of control; under setting [10], 120 % of control; under setting [11], 85 % of control; under setting [4], 62 % of control.
Turning to `CC(=O)O[C@H]1C(=O)[C@@]2(C)[C@H]([C@H](OC(=O)c3ccccc3)[C@]3(O)C[C@H](OC(=O)[C@H](O)[C@@H](NC(=O)c4ccccc4)c4ccccc4)C(C)=C1C3(C)C)[C@]1(OC(C)=O)CO[C@@H]1C[C@@H]2O`, the T/C was 69 % of control (dose: 7.5 mg/kg/injection, schedule: Q07DX002 (ip), vehicle: Klucel (hydroxypropylcellulose) (HPC)); 88 % of control (dose: 30.0 mg/kg/injection, schedule: Q07DX002 (ip), vehicle: Klucel (hydroxypropylcellulose) (HPC)); 106 % of control (dose: 60.0 mg/kg/injection, schedule: Q07DX002 (ip), vehicle: Klucel (hydroxypropylcellulose) (HPC)).
On to `CCC(=O)N(C)[C@@H](C)C(=O)O[C@H]1CC(=O)N(C)c2cc(cc(OC)c2Cl)C/C(C)=C/C=C[C@@H](OC)[C@@]2(O)C[C@H](OC(=O)N2)[C@@H](C)[C@@H]2O[C@@]12C`, for which the T/C is, setting by setting: (dose: 7.5 micrograms/kg/injection, schedule: Q07DX002 (ip), vehicle: saline + alcohol) 62 % of control; (dose: 30.0 micrograms/kg/injection, schedule: Q07DX002 (ip), vehicle: saline + alcohol) 84 % of control; (dose: 120.0 micrograms/kg/injection, schedule: Q07DX002 (ip), vehicle: saline + alcohol) 108 % of control.
Turning to `c1ccc2c(NCCCCCCNc3c4ccccc4nc4ccccc34)c3ccccc3nc2c1`, the T/C reads like this: (dose: 1.25 mg/kg/injection, schedule: Q07DX002 (ip), vehicle: Klucel (hydroxypropylcellulose) (HPC)) 109 % of control and 95 % of control; (dose: 2.5 mg/kg/injection, schedule: Q07DX002 (ip), vehicle: Klucel (hydroxypropylcellulose) (HPC)) 122 % of control and 97 % of control; (dose: 5.0 mg/kg/injection, schedule: Q07DX002 (ip), vehicle: Klucel (hydroxypropylcellulose) (HPC)) 70 % of control; (dose: 20.0 mg/kg/injection, schedule: Q07DX002 (ip), vehicle: Klucel (hydroxypropylcellulose) (HPC)) 70 % of control and 76 % of control; (dose: 40.0 mg/kg/injection, schedule: Q07DX002 (ip), vehicle: Klucel (hydroxypropylcellulose) (HPC)) 72 % of control.
For `COc1ccc(OC)c(/C=C/c2ccnc3ccccc23)c1`, the T/C reads like this: under setting [7], 152 % of control; under setting [12], 101 % of control; (dose: 50.0 mg/kg/injection, schedule: Q07DX002 (ip), vehicle: saline with Tween-80) 86 % of control; under setting [8], 116 % of control; under setting [9], 111 % of control; (dose: 400.0 mg/kg/injection, schedule: Q07DX002 (ip), vehicle: saline with Tween-80) 75 % of control.
For the molecule `COC(=O)Nc1nc2ccc(C3(c4ccc(F)cc4)OCCO3)cc2[nH]1`, the T/C runs as follows: (dose: 12.5 mg/kg/injection, schedule: Q07DX002 (ip), vehicle: saline) 111 % of control and 90 % of control; (dose: 25.0 mg/kg/injection, schedule: Q07DX002 (ip), vehicle: saline) 70 % of control and 87 % of control.
For the molecule `CCC[P+](c1ccccc1)(c1ccccc1)c1ccccc1`, the T/C (dose: 3.12 mg/kg/injection, schedule: Q07DX003 (ip), vehicle: saline with Tween-80) was 114 % of control and 98 % of control; the T/C under setting [1] is 96 % of control; the T/C under setting [2] is 76 % of control; the T/C under setting [3] was 73 % of control.
For `O=C1NC(=O)NC(C(=O)O)N1`, the T/C runs as follows: (dose: 56.25 mg/kg/injection, schedule: Q01DX001 (ip), vehicle: DMSO) 90 % of control; (dose: 56.25 mg/kg/injection, schedule: Q07DX002 (ip), vehicle: DMSO) 122 % of control; (dose: 112.5 mg/kg/injection, schedule: Q01DX001 (ip), vehicle: DMSO) 101 % of control; (dose: 112.5 mg/kg/injection, schedule: Q07DX002 (ip), vehicle: DMSO) 121 % of control; (dose: 225.0 mg/kg/injection, schedule: Q01DX001 (ip), vehicle: DMSO) 97 % of control; (dose: 225.0 mg/kg/injection, schedule: Q07DX002 (ip), vehicle: DMSO) 75 % of control. The T/C (dose: 450.0 mg/kg/injection, schedule: Q01DX001 (ip), vehicle: DMSO) was 97 % of control; the T/C (dose: 450.0 mg/kg/injection, schedule: Q07DX002 (ip), vehicle: DMSO) was 101 % of control; the T/C (dose: 900.0 mg/kg/injection, schedule: Q01DX001 (ip), vehicle: DMSO) was 71 % of control; the T/C (dose: 900.0 mg/kg/injection, schedule: Q07DX002 (ip), vehicle: DMSO) is 108 % of control; the T/C (dose: 1800.0 mg/kg/injection, schedule: Q07DX002 (ip), vehicle: DMSO) was 112 % of control.
With `CC1(O)C=CC(=O)C=C1`, the T/C (dose: 50.0 mg/kg/injection, schedule: Q07DX002 (ip), vehicle: water) was 114 % of control.
`COc1ccc(C(Cn2ccnc2)Sc2ccc(Cl)c(Cl)c2)cc1` (stereo not given): the T/C reads like this: under setting [12], 63 % of control and 87 % of control; under setting [8], 114 % of control.
On to `CC(=O)OC1C2OC3C=C(C)CCC3(CO)C(C)(C1OC(C)=O)C21CO1` (stereo not given), for which the T/C (dose: 0.5 mg/kg/injection, schedule: Q07DX003 (ip), vehicle: saline) was 50 % of control and 61 % of control; the T/C (dose: 1.0 mg/kg/injection, schedule: Q07DX003 (ip), vehicle: saline) was 87 % of control and 101 % of control; the T/C (dose: 2.0 mg/kg/injection, schedule: Q07DX003 (ip), vehicle: saline) is 111 % of control and 117 % of control; the T/C (dose: 2.5 mg/kg/injection, schedule: Q01DX001 (ip), vehicle: saline) was 266 % of control; the T/C (dose: 4.0 mg/kg/injection, schedule: Q07DX003 (ip), vehicle: saline) is 69 % of control and 75 % of control; the T/C (dose: 5.0 mg/kg/injection, schedule: Q01DX001 (ip), vehicle: saline) is 231 % of control. In addition, under “dose: 10.0 mg/kg/injection, schedule: Q01DX001 (ip), vehicle: saline”, the T/C is 173 % of control.
For `O=C(O)CSc1c(Cl)c(=O)oc2ccc(Cl)cc12`, the T/C is, setting by setting: under setting [10], 93 % of control; under setting [11], 113 % of control; under setting [4], 81 % of control; under setting [5], 120 % of control.
